Experiments:
Bacillus subtilis 168 = assay: Test-tube based antimicrobial assay of purified AMP-SELP fusions; assay type: cell-based; conditions: 1.25 mg/ml in water, equal volume of 1:500 diluted culture, 37° C., after 4 hours
Experimental: (§1) Culture supernatant samples from post-induction time-points from a fermentation of Cecropin A-Melettin (CAM) fused to the N-terminus of SELP47K were tested for growth inhibition of E. coli and B. subtilis. […] Purified CAM-SELP47K (SEQ. ID. NO.32) and MBI-SELP47K (SEQ. ID. NO. 33) biomaterials were similarly tested for their antimicrobial activity. Lyophilized material was dissolved in water at 1.25 mg/ml and used in a test-tube based assay performed as follows: Bacillus subtilis 168 and Escherichia coli MG1655 were each grown from single colonies in 5 ml volumes of LB in test tubes, 37° C., 250 rpm, 16 hrs. Cultures were diluted 1:500 in Terrific broth. Equal volumes of diluted culture and purified AMP-SELP fusions described above were combined in sterile glass test-tubes (1 ml total volume in 5 ml tubes), in duplicate, and incubated at 37° C., 250 rpm. Purified SELP47K was used as a negative control.

Escherichia coli MG1655 = assay: as above; assay type: cell-based; conditions: 1.25 mg/ml in water, equal volume of 1:500 diluted culture, 37° C., after 4 hours
Experimental: as §1

Q: What does the source list for “SELP47K: genetically engineered silk-elastin polymer, head-[(GAGAGS)2(GVGVP)3GKGVP(GVGP)4(GAGAGS)2]13-tail (SEQ ID NO. 19), 886 amino acids”?
A: growth in tubes (Bacillus subtilis 168): growth was clearly visible; growth in tubes (Escherichia coli MG1655): growth was clearly visible
